Data on four compounds can be found in patent US6514956B1, “Steroids, their preparation, pharmaceutical compositions thereof and uses of the compounds” (Shanghai Zhongxi Pharmaceutical Co., Ltd., priority 1999, dated 2003).

The structures appear in SMILES notation.

Data set [1] deals with pregnant rats, gravidity d1-4. Kind of data set: Anti-implantation effect in rat. Type of data set: in vivo, Sprague-Dawley rats. The following applies: endogastric once a day for 4 days from gravidity d1, Bliss's method. The procedure: Both sexes of Sprague-Dawley rats were placed into a cage and were allowed to copulate. […] Pregnant rats were randomly divided into 10 groups of 10. The control group was administered with 0.5% CMC-Na solution. 5 Groups were administered with the compound of formula (VI) and 4 groups were administered with Mifepristone. The groups were administered endogastrically once a day for 4 consecutive days starting from gradivity d1. The groups of animals were laparotomized on gradivity d14 and their uterus examined. The number of pregnant animals was counted. ED50 of the two drugs was calculated with Bliss's method.

Data set [2] concerns Human mammary cancer cells MCF-7. Kind of data set: MTT test of killing tumor cells, MCF-7. The class given is cell-based. The following applies: 4-6 days incubation. The procedure: (§1) Human mammary cancer cells (MCF-7, T47D, commercially available) were prepared as 1×10^4/ml cell suspension in RPMI 1640 medium containing 10% calf serum and used to inoculate a 96-well plate at 100 μl/well. The plate was incubated for 24 hours in an incubator in 5% CO2 at 37° C. Two experimental groups each receiving compound of formula (VI) or Mifepristone (commercially available) (triplicate well/group each receiving 100 μl RPMI 1640 medium containing various concentrations of drug) and a control group (each well receiving RPMI medium containing equal volume of solvent) were incubated for 4-6 days in an incubator in 5% CO2 at 37° C. The cultural supernatant was discarded and 0.04% 100 μl MTT prepared with RPMI 1640 was added into each well. Incubation was carried out at 37° C. for 4 hours. The supernatant was discarded and 150 μl dimethyl sulfoxide was added into each well to dissolve Fomazan particles. After being shaked slightly, OD value was measured using a Model 550 Enzyme Labelling Equipment at a wavelength of 540 nm. The rate of inhibition of cells was graphed against the various concentrations of the drug to produce a dosage response curve from which 50% inhibiting concentration IC50 was derived.

For data set [3], the system named is MNU-induced rat mammary cancer. Description: Inhibition of MNU-induced rat mammary cancer. To be noted: 30 days. Type of data set: in vivo, Sprague-Dawley rats. The procedure: Sprague-Dawley rats which are 5-7 weeks old and weighing 90-120 g were treated with an amount of carcinogenic chemical (MNU, commercially available) to induce rat mammary cancer and were divided into a group with cancer-induction alone, a group with mifepristone and two treatment groups with the compound of formula (VI). Each group except for the group with cancer-induction alone was endogastrically administrated with corresponding dose one time per day. After 30 days, the animals were sacrificed by decapitation. Indices such as body weight and tumor weight of each group of the animals were compared. The mean value of the groups was calculated and the rate of tumor growth inhibition derived. Rate of tumor inhibition %=(mean value of the group with cancer-induction alone−mean value of the treatment group)/mean value of the group with cancer-induction alone×100%

The test system of data set [4] is Human mammary cancer cells T47D. Kind of data set: MTT test of killing tumor cells, T47D. The class given is cell-based. The following applies: 4-6 days incubation. The procedure:
as §1

Data set [5] deals with pregnant rats, gravidity d7-9. Kind of data set: Effect in stopping early pregnancy in rats. Type of data set: in vivo, Sprague-Dawley rats. The following applies: for early pregnancy-stopping effect: rats of gravidity d7-9. The procedure: Both sexes of Sprague-Dawley rats were placed into a cage and were allowed to copulate. […] Pregnant rats were randomly divided into 11 groups of 10. The control group was administrated with 0.5% CMC-Na solution. 6 Groups were administered with the compound of formula (VI) at doses of 2.0, 1.6, 1.28, 1.02, 0.82 and 0.66 mg/kg respecticely. 4 Groups were administered with Mifepristone at doses of 3.5, 2.45, 1.72 and 1.2 mg/kg respectively. The groups were administered endogastrically once a day (dose 2 ml/kg) for 3 consecutive days starting from gradivity d7. Animals in which ecolporrhagia was not detected and no signs of embryo implantation were found on dissection examination were considered as not pregnant and were not counted. The animals were sacrificed and laparotomized on gradivity d14 and the numbers of living embryos, dead embryos, implantation sites and yellow bodies in the uterus were counted. The number of the pregnant animals were counted and compared with that of the control group. ED50 of the two test drugs and its credibility interval was calculated with Bliss's method.

For data set [6] the following is noted: compared with mifepristone; reported in Human Reproduction 1994; cited from earlier work.
The conditions of data set [7]: reported in European Journal of Cancer 1999; cited from earlier work.
Data set [8] addresses T1, progesterone receptor in rabbit endometrium (Oryctolagus cuniculus, UniProt P06186).
T1 construct: progesterone receptor in rabbit endometrium; host or cells: rabbit endometrium (tissue)
T1 sequence (P06186 1-930): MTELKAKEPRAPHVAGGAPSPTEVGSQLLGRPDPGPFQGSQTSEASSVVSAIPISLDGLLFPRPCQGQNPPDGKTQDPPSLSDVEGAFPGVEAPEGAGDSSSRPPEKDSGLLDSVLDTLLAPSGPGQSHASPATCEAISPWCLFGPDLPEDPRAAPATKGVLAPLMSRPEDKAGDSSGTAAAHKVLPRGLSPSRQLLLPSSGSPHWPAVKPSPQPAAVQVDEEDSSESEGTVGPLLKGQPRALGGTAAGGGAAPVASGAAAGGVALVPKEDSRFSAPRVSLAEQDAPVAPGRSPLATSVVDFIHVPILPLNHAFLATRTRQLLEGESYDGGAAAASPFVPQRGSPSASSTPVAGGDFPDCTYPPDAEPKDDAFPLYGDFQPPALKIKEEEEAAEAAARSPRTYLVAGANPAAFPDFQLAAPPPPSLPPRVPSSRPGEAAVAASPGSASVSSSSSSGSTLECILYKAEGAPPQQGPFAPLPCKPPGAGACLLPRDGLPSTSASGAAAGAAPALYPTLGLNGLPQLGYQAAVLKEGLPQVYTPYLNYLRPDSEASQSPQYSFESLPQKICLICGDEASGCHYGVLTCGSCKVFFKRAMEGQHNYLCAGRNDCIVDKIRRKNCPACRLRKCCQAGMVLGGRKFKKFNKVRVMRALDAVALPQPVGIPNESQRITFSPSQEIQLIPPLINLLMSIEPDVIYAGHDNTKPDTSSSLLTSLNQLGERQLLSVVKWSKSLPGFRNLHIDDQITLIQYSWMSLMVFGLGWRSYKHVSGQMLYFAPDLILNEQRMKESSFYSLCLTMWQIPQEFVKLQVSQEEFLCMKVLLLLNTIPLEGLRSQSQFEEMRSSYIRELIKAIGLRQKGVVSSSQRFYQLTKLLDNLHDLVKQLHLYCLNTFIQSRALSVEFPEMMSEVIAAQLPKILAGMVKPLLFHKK
The following applies: cited from earlier work.

Consider `CC#CC1(O)CCC2C3CCC4=CC(=O)CCC4=C3C(c3ccc(N(C)C4CCCCC4)cc3)CC21C` (stereo not drawn) [compound of formula (VI), 11β-[4-(N-methyl-N-cyclohexylamino)phenyl]-17α-(1-propinyl)-17β-hydroxy-4,9-estradiene-3-one], for which the “anti-implantation ED50” value in data set [1] turned out to be 2.3409 ± 0.6191 mg/kg. Further, the concentration for half-maximal inhibition (IC50) came out at 5.5 ± 0.72 µM in data set [2] (MCF-7 cells) and 6.4 ± 3.15 µM in data set [4]. Also, the “Inhibition (%) of tumor growth” value in data set [3] (10 mg/kg endogastrically once per day) is recorded as 50.4%; in data set [3] (20 mg/kg endogastrically once per day) it was 89.3%. Besides, in data set [5] (2 mg/kg/day), the early pregnancy-stopping effect entry is listed as “complete early pregnancy-stopping effect”. Also, the “ED50, early pregnancy-stopping effect” value in data set [5] (rats, endogastric once a day for 3 days from gravidity d7, Bliss's method, credibility interval in brackets) is 1.1439 ± 0.1590 mg/kg.

With `CN(C)c1ccc([C@H]2C[C@@]3(C)[C@@H](CC[C@@]3(O)/C=C\CO)[C@@H]3CCC4=CC(=O)CCC4=C32)cc1` [Lilopristone, 11β-[4-(N,N-dimethylamino)phenyl]-17α-[3-hydroxy-1(Z)-propenyl]-17β-hydroxy-4,9-estradiene-3-one], the “clinical effect in stopping early pregnancy” value in data set [6] is listed as “only equivalent to that of mifepristone”.

As for `CN(C)c1ccc([C@H]2C[C@]3(C)[C@@H](CC[C@]3(O)CCCO)[C@@H]3CCC4=CC(=O)CCC4=C32)cc1` [Onapristone, 11β-[4-(N,N-dimethylamino)phenyl]-17α-hydroxy-17β-(3-hydroxypropyl)-13α-4,9-estradiene-3-one], the “toxicity to human liver” value in data set [7] was “had toxicity to human liver”.

As to `CC#C[C@]1(O)CC[C@H]2[C@@H]3CCC4=CC(=O)CCC4=C3[C@@H](c3ccc(N(C)C)cc3)C[C@@]21C` [Mifepristone, 11β-[4-(N,N-dimethylamino)phenyl]-17α-(1-propinyl)-17β-hydroxy-4,9-estradiene-3-one], the median effective dose (ED50) in data set [1] (Rattus norvegicus, 96 h) was found to be 6.69 ± 1.55 mg/kg; in data set [5] (Rattus norvegicus, 72 h, rats, endogastric once a day for 3 days from gravidity d7, Bliss's method, credibility interval in brackets) it was 2.12 ± 0.447 mg/kg. Also, the “affinity with progesterone receptor compared with progesterone” value in data set [8] was “five-fold higher than that of progesterone”. The IC50 in data set [2] (Homo sapiens, MCF7, MCF-7 cells) was 10.8 ± 8.1 µM; in data set [4] (Homo sapiens), 11 ± 9.03 µM. In data set [3] (40 mg/kg endogastrically once per day), the “Inhibition (%) of tumor growth” value is 72.1%. Also, the early pregnancy-stopping effect entry in data set [5] (3.5 mg/kg) is “complete early pregnancy-stopping effect”.
